According to ChEMBL document CHEMBL5029168, “Discovery of novel ID2 antagonists from pharmacophore-based virtual screening as potential therapeutics for glioma” (Bioorg Med Chem, 2021):

Experiments:
GL261 = assay: Cytotoxicity against mouse GL261 cells assessed as reduction in cell viability incubated for 24 hrs by CCK8 assay; format: functional, cell-based; details: GL261, 24 h
Hs 683 = assay: Cytotoxicity against human Hs 683 cells assessed as reduction in cell viability incubated for 24 hrs by CCK8 assay; format: functional, cell-based; details: Hs 683, 24 h
U-87 MG = assay: Cytotoxicity against human U87 cells assessed as reduction in cell viability incubated for 24 hrs by CCK8 assay; format: functional, cell-based, U-87MG ATCC

Compound	IC50 (GL261) [µM]	IC50 (Hs 683) [µM]	IC50 (U-87 MG) [µM]
O=C(NCCc1ccccc1)c1ccc(N2C[C@@H]3C[C@H](C2)c2cccc(=O)n2C3)c(NS(=O)(=O)c2cccc(Cl)c2)c1	48.1	55.3	56.2
Cc1ccc([C@H](O)CNC(=O)c2cccc(C)c2C)cc1	74.2	70.3	67.3
COc1ccc(Cn2c(SCC(=O)n3c4c(c5ccccc53)CCCC4)nc3ccccc32)cc1	90.4	91.4	88.5
O=C(Cc1cccc2ccccc12)NNC(=O)Nc1cccc(Cl)c1	> 100	> 100	> 100
